According to patent US6165984A, “Naringin and naringenin as inhibitors of acyl CoA-cholesterol-o-acyltransferase” (Korea Institute of Science & Technology, priority 1997, dated 2000):

How the values were obtained:
[1] = Serum GOT, GPT and γGTP in a person (Example 7, Step 4); type: in vivo; conditions: human, oral, 10 mg/kg daily
Protocol: Naringin was orally administered to a person at a daily dose of 10 mg/kg for 68 days and serum GOT, GPT and γGTP levels were determined just before the administration (day 0), and 45 and 68 days after the administration (day 45 and day 68), respectively. Consequently, serum GOT levels at day 45 and day 68 decreased by 17%, respectively, in comparison to that of day 0. Serum GPT levels at day 45 and day 68 decreased by 15% and 19%, respectively, in comparison to that of day 0. Further, serum γGTP levels at day 45 and day 68 decreased by 25% and 51%, respectively, in comparison to that of day 0.

hepatic cells = conditions: rabbits, six weeks
Protocol: The same procedure as in (Step 1) was repeated except that 30 three-month old New Zealand White rabbits (Yeonam Horticulture and Animal Husbandry College, Korea) each weighing about 2.5 to 2.6 kg were used in place of the rats, and the rabbits were fed for six weeks with three different diets, i.e., RC4 diet containing 1% cholesterol (Control group); 1% cholesterol plus 1 mg/kg Lovastatin® (Comparative group); and 1% cholesterol plus 0.1% naringin, respectively.
Thereafter, the livers were separated from the rabbits and the histopathological observations were carried out as follows.
The rabbits were anesthetized with an intramuscular injection of ketamine (75 mg/kg) and subjected to an abdominal incision. […] The fixed liver was washed sufficiently with water, dehydrated stepwise with 70%, 80%, 90% and 100% ethanol and, then, embedded in paraffin. The embedded liver was sectioned in 4 μm thickness with a microtome and stained with hematoxylin and eosin. The stained liver specimen was made transparent with xylene, mounted with permount, and then observed under a microscope to confirm the presence of lesions.

[2] = Serum GOT and GPT levels in rats (Example 7); type: in vivo, Sprague-Dawley rat; conditions: 1% cholesterol diet plus 0.02% naringin, six weeks
Excerpt: (§1) 20 four-week-old Sprague-Dawley rats (Taihan laboratory animal center, Korea) each weighing about 90 to 110 g were evenly divided into two dietary groups by a randomized block design. The rats of the two groups were fed with two different high-cholesterol diets, i.e., AIN-76 laboratory animal diet (ICN Biochemicals, Cleveland, Ohio, U.S.A.) containing 1% cholesterol (Control group), and 1% cholesterol plus 0.02% naringin, respectively.
Blood samples were taken from the rats of the two dietary groups and serum GOT (glutamate-oxaloacetate transaminase) and GPT (glutamate-pyruvate transaminase) levels were determined in accordance with the method of Reitman and Frankel (Reitman, S. and J. S. Frankel, Am. J. Clin. Pathol., 28, 56(1956)). GOT and GPT are synthesized in the liver and heart, and released into blood stream upon the damage of these organs. Accordingly, GOT and GPT are representative markers of the liver-function and high serum GOT and GPT levels mean severe damage of the liver.

[3] = Blood total cholesterol and triglyceride in cholesterol-fed rabbits (Example 6); type: in vivo, New Zealand White rabbit; conditions: 1% cholesterol diet, 6 weeks, 1 mg/kg Lovastatin, 0.1% naringin or naringenin; for Triglyceride: control 56; for Total cholesterol: control 1143
Protocol: Blood samples were taken from the rats of the three dietary groups and plasma HDL fractions were separated therefrom by using HDL-cholesterol reagent (Sigma Chemical Co., Cat. No. 352-3) containing dextran-sulfate. Total cholesterol and HDL-cholesterol levels were determined by using Sigma Diagnostic Kit Cat. No. 352-100(Sigma Chemical Co., […] et al., Clin. Chem., 20, 470-475(1974)). Neutral lipid level was determined by using Sigma Diagnostic Kit Cat. No. 339-50(Bucolo, G. and David, H., Clin. Chem., 19, 476-482(1973)). The result is shown in Table III, wherein the total plasma cholesterol levels in naringin and naringenin-fed rat groups decreased by 32% and 18%, respectively, as compared with that of the control group. […] RC4 diet comprises 7.6% moisture, 22.8% crude protein, 2.8% crude fat, 8.8% crude ash, 14.4% crude cellulose and 43.6% soluble nitrogen-free substances. The rabbits were bred for 6 weeks while being allowed free access to the diets and water. Further, blood samples were taken from the rabbits and total cholesterol and triglyceride levels were determined in accordance with the same procedure in Example 4.

[4] = Serum γGTP in a habitual drinker (Example 7, Step 4); type: in vivo; conditions: human, oral, 6 mg/kg daily, 30 days; day 0: 129 IU/l
Protocol: On the other hand, naringin was orally administered to a person, who had drunk alcoholic beverages habitually in an amount of 100 cc per day, at a daily dose of 6 mg/kg for 30 days and serum γGTP level was determined just before the administration (day 0) and 30 days after the administration (day 30). Consequently, initial serum γGTP level at day 0 was 129 IU/l, while that of day 30 decreased to 69 IU/l which is within the normal range.

[5] = Plasma total cholesterol, HDL-cholesterol and neutral lipid in rats on high-cholesterol diet (Example 4); type: in vivo, Sprague-Dawley rat; conditions: 1% cholesterol diet plus 0.1% compound, six weeks; for HDL-C: control 22.2; for TG (triglyceride): control 99.2 ± 18.9; for Total-C (total plasma cholesterol): control 147.8 ± 34.8
Excerpt: as §1, with “30” for “20”, “three” for “two”, “0.1% naringin or naringenin,” for “0.02% naringin,”
The effect of administering naringin or naringenin to rats on the plasma cholesterol and neutral lipid content was determined as follows.
Blood samples were taken from the rats of the three dietary groups and plasma HDL fractions were separated therefrom by using HDL-cholesterol reagent (Sigma Chemical Co., Cat. No. 352-3) containing dextran-sulfate. Total cholesterol and HDL-cholesterol levels were determined by using Sigma Diagnostic Kit Cat. No. 352-100(Sigma Chemical Co., U.S.A.) (Allain et al., Clin. Chem., 20, 470-475(1974)). Neutral lipid level was determined by using Sigma Diagnostic Kit Cat. No. 339-50(Bucolo, G. and David, H., Clin. Chem., 19, 476-482(1973)). The result is shown in Table III, wherein the total plasma cholesterol levels in naringin and naringenin-fed rat groups decreased by 32% and 18%, respectively, as compared with that of the control group.

C[C@@H]1O[C@@H](O[C@H]2[C@H](Oc3cc(O)c4c(c3)O[C@H](c3ccc(O)cc3)CC4=O)O[C@H](CO)[C@@H](O)[C@@H]2O)[C@H](O)[C@H](O)[C@H]1O [naringin, Naringin]
decrease of serum GOT level, day 45 vs day 0 ([1]; day 45): 17%
decrease of serum GPT level, day 45 vs day 0 ([1]; day 45): 15%
decrease of serum γGTP level, day 45 vs day 0 ([1]; day 45): 25%
decrease of serum GOT level, day 68 vs day 0 ([1]; day 68): 17%
decrease of serum GPT level, day 68 vs day 0 ([1]; day 68): 19%
occurrence of fatty liver (hepatic cells; 1% cholesterol diet plus 0.1% naringin): strongly inhibits the occurrence of fatty liver
microscopic features of the liver (FIGS. 2A-2C) (hepatic cells; 1% cholesterol diet, 1 mg/kg Lovastatin, 0.1% naringin): normal and the deposition of fat is not observed
serum GOT level lower than control group [2]: about 30%
serum GPT level lower than control group [2]: ~10%
Triglyceride [3]: 72 mg/dL
Total cholesterol [3]: 1367 mg/dL
serum γGTP level at day 30 [4]: 69 IU/l
decrease of total plasma cholesterol level compared with control group [5]: 32%
HDL-C [5]: 24.0 mg/dL
TG (triglyceride) [5]: 86.7 ± 14.6 mg/dL
Total-C (total plasma cholesterol) [5]: 100.8 ± 16.1 mg/dL

O=C1C[C@@H](c2ccc(O)cc2)Oc2cc(O)cc(O)c21 [naringenin]
Triglyceride [3]: 70 mg/dL
Total cholesterol [3]: 1350 mg/dL
decrease of total plasma cholesterol level compared with control group [5]: 18%
HDL-C [5]: 23.4 mg/dL
TG (triglyceride) [5]: 103.4 ± 18.2 mg/dL
Total-C (total plasma cholesterol) [5]: 120.9 ± 25.9 mg/dL
